From ChEMBL document CHEMBL1145549, “Constrained NBMPR analogue synthesis, pharmacophore mapping and 3D-QSAR modeling of equilibrative nucleoside transporter 1 (ENT1) inhibitory activity” (Bioorg Med Chem, 2008)

Biological target: T1, Equilibrative nucleoside transporter 1 (Homo sapiens, UniProt Q99808)
T1 sequence (Q99808 whole entry): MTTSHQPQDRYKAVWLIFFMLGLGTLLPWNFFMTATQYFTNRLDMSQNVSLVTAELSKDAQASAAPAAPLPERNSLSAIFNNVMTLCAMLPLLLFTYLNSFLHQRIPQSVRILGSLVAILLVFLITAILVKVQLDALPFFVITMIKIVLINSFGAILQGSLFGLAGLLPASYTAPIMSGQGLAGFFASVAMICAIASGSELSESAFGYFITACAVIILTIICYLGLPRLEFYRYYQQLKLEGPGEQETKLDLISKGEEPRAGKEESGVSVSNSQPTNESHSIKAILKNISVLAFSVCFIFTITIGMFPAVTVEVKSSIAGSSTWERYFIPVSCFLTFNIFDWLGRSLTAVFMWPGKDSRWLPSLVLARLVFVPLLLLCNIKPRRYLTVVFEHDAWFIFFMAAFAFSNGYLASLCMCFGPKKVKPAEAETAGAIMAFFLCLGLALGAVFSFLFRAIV
Test: Binding affinity to ENT1 transporter

Structure (SMILES)	IC50 [µM]
O=[N+]([O-])c1ccc2c(c1)CCN(c1ncnc3c1nc1n3[C@@H]3O[C@H](CO1)[C@@H](O)[C@H]3O)C2	245
O=[N+]([O-])c1cccc2c1CCN(c1ncnc3c1nc1n3[C@@H]3O[C@H](CO1)[C@@H](O)[C@H]3O)C2	7410
CSc1nc(N)nc2c1ncn2[C@@H]1O[C@H](CO)[C@@H](O)[C@H]1O	204
OC[C@H]1O[C@@H](n2cnc3c(Sc4ccccc4)ncnc32)[C@H](O)[C@@H]1O	91.2
COc1ncnc2c1ccn2[C@@H]1O[C@H](CO)[C@@H](O)[C@H]1O	339
CCSc1nc(N)nc2c1ncn2[C@@H]1O[C@H](CO)[C@@H](O)[C@H]1O	162
OC[C@H]1O[C@@H](n2ccc3c(S)ncnc32)[C@H](O)[C@@H]1O	389
O=[N+]([O-])c1cccc2c1CN(c1ncnc3c1nc1n3[C@@H]3O[C@H](CO1)[C@@H](O)[C@H]3O)CC2	1740
CCCSc1nc(N)nc2c1ncn2CC(C)C	63.1
Nc1nc(SCc2ccccn2)c2ncn([C@@H]3O[C@H](CO)[C@@H](O)[C@H]3O)c2n1	34.7
CSc1ncnc2c1c(Br)cn2[C@@H]1O[C@H](CO)[C@@H](O)[C@H]1O	115
CSc1ncnc2c1ncn2[C@@H]1O[C@H](CO)[C@@H](O)[C@H]1O	229
CCCn1cnc2c(SC(C)C)nc(N)nc21	145

Now those with a lower IC50, led by results:

IC50 [µM]	Structure (SMILES)
32.4	OC[C@H]1O[C@@H](n2cnc3c(Nc4ccccc4)ncnc32)[C@H](O)[C@@H]1O [N6-PHENYLADENOSINE]
14.8	Nc1nc(SCc2cccnc2)c2ncn([C@@H]3O[C@H](CO)[C@@H](O)[C@H]3O)c2n1
13.5	CCCCCNc1ncnc2c1ncn2[C@@H]1O[C@H](CO)[C@@H](O)[C@H]1O
12	Cc1cccc(CSc2ncnc3c2ncn3[C@@H]2O[C@H](CO)[C@@H](O)[C@H]2O)c1
12	CCCCSc1nc(N)nc2c1ncn2[C@@H]1O[C@H](CO)[C@@H](O)[C@H]1O
6.31	OC[C@H]1O[C@@H](n2cnc3c(SC4CCCCC4)ncnc32)[C@H](O)[C@@H]1O
5.25	OC[C@H]1O[C@@H](n2ccc3c(SCc4ccccc4)ncnc32)[C@H](O)[C@@H]1O
4.79	Nc1nc(SCc2ccccc2F)c2ncn([C@@H]3O[C@H](CO)[C@@H](O)[C@H]3O)c2n1
2.4	OC[C@H]1O[C@@H](n2cnc3c(CSc4ccccc4Br)ncnc32)[C@H](O)[C@@H]1O
1.82	OC[C@H]1O[C@@H](n2cnc3c(N4CCc5ccccc5C4)ncnc32)[C@H](O)[C@@H]1O
1.51	OC[C@H]1O[C@@H](n2cnc3c(CSc4c(F)cccc4Cl)ncnc32)[C@H](O)[C@@H]1O
0.363	OC[C@H]1O[C@@H](n2cnc3c(CSc4cccc(Br)c4)ncnc32)[C@H](O)[C@@H]1O
0.355	OC[C@H]1O[C@@H](n2cnc3c(CSc4ccccc4F)ncnc32)[C@H](O)[C@@H]1O
0.331	O=[N+]([O-])c1ccc2c(c1)CN(c1ncnc3c1nc1n3[C@@H]3O[C@H](CO1)[C@@H](O)[C@H]3O)CC2
0.251	OC[C@H]1O[C@@H](n2cnc3c(CSc4ccc(Cl)cc4)ncnc32)[C@H](O)[C@@H]1O
0.178	Nc1nc(SCc2cccc([N+](=O)[O-])c2)c2ncn([C@@H]3O[C@H](CO)[C@@H](O)[C@H]3O)c2n1
0.0692	OC[C@H]1O[C@@H](n2cnc3c(CSc4ccc(I)cc4)ncnc32)[C@H](O)[C@@H]1O

Biological target: T1, Equilibrative nucleoside transporter 1
Test: Displacement of 5-(SAENTA)-X8-fluorescein from human ENT1 transporter in human K562 cells
Format: cell-based

Structure (SMILES)	Ki [µM]
O=[N+]([O-])c1ccc2c(c1)CCN(c1ncnc3c1nc1n3[C@@H]3O[C@H](CO1)[C@@H](O)[C@H]3O)C2	> 1
O=[N+]([O-])c1cccc2c1CCN(c1ncnc3c1nc1n3[C@@H]3O[C@H](CO1)[C@@H](O)[C@H]3O)C2	> 1
O=[N+]([O-])c1cccc2c1CN(c1ncnc3c1nc1n3[C@@H]3O[C@H](CO1)[C@@H](O)[C@H]3O)CC2	> 1
O=[N+]([O-])c1ccc2c(c1)CN(c1ncnc3c1nc1n3[C@@H]3O[C@H](CO1)[C@@H](O)[C@H]3O)CC2	0.0189
